Assays:
[1] = system: retinal ganglion cells; assay: In vivo model of glaucoma: pattern electroretinogram (PERG); settings: p<0.05 (FIGS. 9A and 9B)
Description: FIGS. 9A and 9B depict quantification of electrical activity in retinal ganglion cells in an in vivo model of glaucoma in the presence or absence of sigma-2 receptor modulator.
(§1) In vivo models of glaucoma (Shah, M., et al., “Translational Preclinical Pharmacologic Disease Models for Opthalmic Drug Development,” Development. Pharm. Res. 36(4): 58 (2019); which is hereby incorporated by reference in its entirety) were used to test the utility of sigma-2 receptor modulators.
Glaucoma can cause perturbations in the electrical activity of the retina. To measure the electrical activity, a pattern electroretinogram (PERG) measure electrical activity of the retina in response to a test stimulus, such as a reversing checkerboard. PERG is a noninvasive, direct, and objective method to assess retinal ganglion cell function. An in vivo model of glaucoma causes a functional deficit in retinal ganglion cells (injured vs. naïve), resembling what is seen in patients with glaucoma and other retinal diseases.

[2] = system: RPE cell cultures; assay: Quantification of an autophagy related protein after oxidative stressor; type: cell-based; settings: after oxidative stressor (FIG. 4)
Description: FIG. 4 depicts quantification of an autophagy-related protein after oxidative stress by an oxidative stressor in the presence or absence of sigma-2 receptor modulators.
Oxidative stressors are associated with pathology in AMD with changes seen in autophagy associated proteins. Application of an oxidative stressor caused increased expression of an autophagy related protein acutely (FIG. 4).

[3] = system: RPE cell cultures; assay: Autophagy assays: POS trafficking, colocalization of POS with LC3B; type: cell-based
Description: FIGS. 2A and 2B depict photoreceptor outer segment trafficking after treatment with Abeta oligomers in the presence or absence of sigma 2 receptor modulators (FIG. 2A=Compound A and Compound C; FIG. 2B=Compound B).
FIGS. 3A and 3B depict photoreceptor outer segment trafficking after treatment with an oxidative stressor in the presence or absence of sigma 2 receptor modulators (FIG. 3A=Compound A and Compound C; FIG. 3B=Compound B).
Autophagy Assays: Autophagy assays were performed in accordance with Klionsky et al., “Guidelines for the Use and Interpretation of Assays for Monitoring Autophagy,” (4th edition) Autophagy 2021; 17:1-382, which is hereby incorporated by reference in its entirety. RPE cultures were treated with human oligomeric Aβ in either the presence or absence of compounds of the invention. POS trafficking was measured over time after the addition of POS to RPE cell cultures. Stressors included addition of Aβ oligomers or H2O2 for 12 to 48 hours. […] This process was disrupted by addition of stressors such as Aβ oligomers (FIGS. 2A and 2B) or oxidative stress (FIGS. 3A and 3B).

[4] = biological target: T1, sigma-2 receptors (Mus musculus, UniProt Q8VD00); assay: Drug concentration in plasma, brain and retina; type: in vivo
T1 sequence (Q8VD00 1-176): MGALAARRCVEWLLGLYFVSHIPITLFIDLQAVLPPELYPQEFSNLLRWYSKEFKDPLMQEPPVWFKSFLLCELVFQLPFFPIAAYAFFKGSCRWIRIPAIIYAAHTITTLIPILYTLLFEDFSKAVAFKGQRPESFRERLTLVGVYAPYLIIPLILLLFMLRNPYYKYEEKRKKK
Description: FIG. 6 depicts quantification of the concentration of the sigma-2 receptor modulator Compound A in mouse plasma, brain, and retina.
FIG. 7 depicts quantification of the concentration of the sigma-2 receptor modulator, Compound B, in mouse plasma, brain and retina.
Following a single oral administration of [14C]-Compound A to a rat, autoradiography was performed to determine tissue distribution. […] Receptor occupancy exceeding 80% confers efficacy in vivo. Drug concentration in the brain (cerebellum), retina, and plasma were also measured. […] Similarly, following a single orally administered dose, Compound B was found in concentrations that exceeded 80% receptor occupancy at sigma-2 receptors in the retina and plasma and approximately 50% occupancy in the brain (FIG. 7).

[5] = system: retinal ganglion cells; assay: In vivo model of glaucoma: retinal ganglion cell counts; settings: p<0.05 (FIG. 8)
Description: FIG. 8 depicts quantification of retinal ganglion cell density in an in vivo model of glaucoma in the presence or absence of sigma-2 receptor modulator.
as §1
To test whether sigma-2 receptor modulators can rescue cell death, in vivo models were used to cause cell death of retinal ganglion cells, resembling what is seen in patients with glaucoma and other retinal diseases.

[6] = oxidative stress, H2O2 (FIGS. 3A and 3B)
[7] = stressor Aβ oligomers (FIGS. 2A and 2B)

SMILES: CC(C)(C)Oc1cc(CCC(C)(C)N2Cc3ccc(S(C)(=O)=O)cc3C2)ccc1O [Compound A]
- retinal ganglion cell function (PERG electrical activity) [1]: preserves retinal ganglion cell function
- expression of an autophagy related protein [2]: prevented the increase in this autophagy related protein
- POS trafficking into autophagosomes (colocalization of POS with LC3B) [3, 6]: restored normal trafficking into autophagosomes after stress
- POS trafficking into autophagosomes (colocalization of POS with LC3B) [3, 7]: restored normal trafficking into autophagosomes after stress
- concentration in the retina relative to brain (cerebellum) and plasma ([4]; mouse (FIG. 6)): higher than the concentration in the brain or plasma

SMILES: CC1(O)CCN(CCC(C)(C)c2ccc(C(F)(F)F)cc2)CC1 [Compound B]
- occupancy at sigma-2 receptors in the brain ([4]; mouse (FIG. 7), single orally administered dose): approximately 50%
- retinal ganglion cell counts [5]: significantly preserved retinal ganglion cells counts

SMILES: CC(C)=C[C@@H](CC(C)(C)c1ccc(C(F)(F)F)cc1)N1CCC(C2CCOCC2)CC1 [Compound C]
- expression of an autophagy related protein [2]: prevented the increase in this autophagy related protein
- POS trafficking into autophagosomes (colocalization of POS with LC3B) [3, 6]: restored normal trafficking into autophagosomes after stress
- POS trafficking into autophagosomes (colocalization of POS with LC3B) [3, 7]: restored normal trafficking into autophagosomes after stress
